The compounds below were run against T1, Coagulation factor VII (Homo sapiens, UniProt P08709) (assay: Enzyme Inhibition Assay).
T1 sequence (P08709 whole entry): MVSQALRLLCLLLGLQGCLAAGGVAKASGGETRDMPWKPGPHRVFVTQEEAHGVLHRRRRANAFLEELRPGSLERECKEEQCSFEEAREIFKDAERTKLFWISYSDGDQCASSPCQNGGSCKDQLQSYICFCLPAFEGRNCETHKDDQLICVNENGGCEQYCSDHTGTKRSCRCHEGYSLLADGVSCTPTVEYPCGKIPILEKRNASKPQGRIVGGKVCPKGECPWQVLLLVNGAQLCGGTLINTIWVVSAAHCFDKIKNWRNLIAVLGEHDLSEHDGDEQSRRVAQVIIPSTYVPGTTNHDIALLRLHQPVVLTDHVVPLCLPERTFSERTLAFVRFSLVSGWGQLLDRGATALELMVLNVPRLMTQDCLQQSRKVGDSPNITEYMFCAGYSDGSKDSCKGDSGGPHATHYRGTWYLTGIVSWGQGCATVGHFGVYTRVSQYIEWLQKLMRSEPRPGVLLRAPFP
Description: The enzyme reactions were initiated by the addition of substrate, and the color developed from the release of p-nitroanilide from each chromogenic substrate was monitored at 405 nm using a Thermomax kinetic plate reader (Molecular Devices). […] The apparent Ki values were then calculated according to the Cheng-Prusoff equation: Ki = IC50/1 + [S]/Km.

Row | Compound | Ki [nM]
1 | CSc1ccccc1-c1cc(C(CC(=O)O)C(=O)O)cc(-c2nc3ccc(C(=N)N)cc3[nH]2)c1O (stereo not given) [2-[3-(5-carbamimidoyl-1H-1,3-benzodiazol-2-yl)-4-hydroxy-5-[2-(methylsulfanyl)phenyl]phenyl]butanedioic acid] | 64
2 | N=C(N)c1ccc2nc(-c3cc(C(CC(=O)O)C(=O)O)cc(-c4cccc(C5CCOC(=O)O5)c4)c3O)[nH]c2c1 (stereo not given) [2-[3-(5-carbamimidoyl-1H-1,3-benzodiazol-2-yl)-4-hydroxy-5-[3-(2-oxo-1,3-dioxan-4-yl)phenyl]phenyl]butanedioic acid] | 280
3 | N=C(N)c1ccc2nc(-c3cc(C(CC(=O)O)C(=O)O)cc(-c4ccc(CO)s4)c3O)[nH]c2c1 (stereo not given) [2-[3-(5-carbamimidoyl-1H-1,3-benzodiazol-2-yl)-4-hydroxy-5-[5-(hydroxymethyl)thiophen-2-yl]phenyl]butanedioic acid] | 130
4 | CC(=O)N(c1cccc(C)c1)c1cc(C(CC(=O)O)C(=O)O)cc(-c2nc3ccc(C(=N)N)cc3[nH]2)c1O (stereo not given) [2-[3-(5-carbamimidoyl-1H-1,3-benzodiazol-2-yl)-4-hydroxy-5-[N-(3-methylphenyl)acetamido]phenyl]butanedioic acid] | 54
5 | N=C(N)c1ccc2nc(-c3cc(C(CC(=O)O)C(=O)O)cc(-c4ccc(Cl)s4)c3O)[nH]c2c1 (stereo not given) [2-[3-(5-carbamimidoyl-1H-1,3-benzodiazol-2-yl)-5-(5-chlorothiophen-2-yl)-4-hydroxyphenyl]butanedioic acid] | 110

Reference: BindingDB's records for doi:10.1016/j.bmcl.2005.12.040 (Celera, 2006)
